Experimental data from patent US4425360A, “Pharmacologically active novel O-substituted pyruvic acid oximes” (Boehringer Mannheim GmbH, priority 1980, dated 1984).

What was measured:
[1] = system: blood-glucose concentration; experiment: Threshold dose of blood-glucose-lowering activity in fasting guinea pigs (i.p.); type: in vivo, guinea pig; conditions: Cavia porcellus, ip
Method: 1. Test procedure for determination of threshold dose
Fasting guinea pigs were used as experimental models to determine the threshold dose of the blood-glucose-lowering activity of the substances to be investigated. Food was withheld from the animals used in the investigations for 16 hours prior to the start of the tests. The animals remained without food for the entire testing period but had free access to drinking water.
The substances were administered intraperitoneally as a solution of the potassium salt at pH 7.4.
A parallel control group was given an 0.9% NaCl solution.
The drawing of blood for determination of the glucose concentrations was effected immediately prior to administration of the substances and at one-hour intervals up to the fourth hour after the administration of the substances. To this end, an ear vein was carefully punctured with a No. 18 cannula, and the drops of blood issuing were picked up with a 10 μl capillary.
The blood-glucose concentration was determined in the hemolyzate by the specific hexokinase method. To this end, the 10 μl blood sample was pipetted into a stabilizer solution containing digitonin as hemolysis accelerator and maleinimide as […]. Following this, an aliquot was taken from the hemolyzate so obtained and determined by the hexokinase method on an LKB 8600 (made by LKB, Bromma, Sweden).
The dose which with the specified number of test animals per dose group (N=4) was just large enough to produce a significant lowering of fasting glycemia (p>0.05) was adopted as threshold dose.

glucose resorption = experiment: Resorption-inhibiting activity: oral glucose loading in fasting guinea pigs; type: in vivo, guinea pig; conditions: Cavia porcellus, ip, 1 g glucose p.o., AUC difference vs control; for inhibition in vivo at 20 mg/kg: dose 20 mg/kg i.p.; for inhibition in vivo at 40 mg/kg: dose 40 mg/kg i.p.; for inhibition in vivo at 25 mg/kg: dose 25 mg/kg i.p.
Method: 2. Test procedure for determination of resorption-inhibiting activity
To determine the effect on glucose resorption, oral glucose loading was effected. To this end, the substance to be tested was administered intraperitoneally as potassium salt, as described, to a group of ten fasting guinea pigs. At the same time, 1 g glucose was orally administered to the animals as a 20% solution by means of an esophageal bougie.
After a preliminary value had been established, blood was taken from the animals at close intervals (20 min. to 200 min.) for determination of the glucose concentrations, as described.
A parallel control group was also given 1 g glucose p. o., and intraperitoneally a corresponding amount of 0.9% NaCl solution.
The blood-glucose concentration was determined in the hemolyzate by the hexokinase method, as described.
With regard to glucose resorption, the area under the concentration/time curve, calculated by means of the empirical trapeze formula, served as quantity to be measured. The difference in the area between the control and test groups, expressed in percent, was used as a measure for the inhibition of glucose resorption.

[2] = potassium salt pH 7.4, N=4 per dose group, smallest dose significantly lowering fasting glycemia
[3] = potassium salt pH 7.4, N=4, remark printed: weak

Row | Structure (SMILES) | minimal effective dose [1, 2] | inhibition in vivo at 40 mg/kg (glucose resorption) | further results
1 | CC(=NOCCCc1ccccc1)C(=O)[O-].[Na+] [Example 1b, sodium 2-(3-phenylpropyloxyimino)-propionate] | 25 to 50 mg/kg | – | inhibition in vivo at 20 mg/kg (glucose resorption): 39%
2 | CC(=NOCCOc1ccccc1)C(=O)[O-].[Na+] [Example 1c, sodium 2-(2-phenoxyethyloxyimino)-propionate] | – | 25% | minimal effective dose [1, 3]: 50 mg/kg
3 | CC(=NOCCc1ccccc1)C(=O)O [Example 2a, 2-(2-phenylethyloxyimino)-propionic acid] | 75 mg/kg | 33% | –
4 | CC(=NOCC#Cc1ccccc1)C(=O)O [Example 2d, 2-(3-phenyl-2-propynyloxyimino)-propionic acid] | – | 65% | minimal effective dose ([1]; potassium salt pH 7.4, N=4, remark printed: wk. indiv. animals): 25 mg/kg
5 | CC(=CCON=C(C)C(=O)O)c1ccccc1 [Example 3, 2-(γ-Methylcinnamyloxyimino)-propionic acid] | 50 mg/kg | – | inhibition in vivo at 30 mg/kg (glucose resorption; dose 30 mg/kg i.p.): 0%
6 | CC(=NOCC=Cc1ccccc1)C(=O)O [Example 3a, 2-cinnamyloxyiminopropionic acid] | 25 mg/kg | – | inhibition in vivo at 10 mg/kg (glucose resorption; dose 10 mg/kg i.p.): 33%
7 | CC(=Cc1ccccc1)CON=C(C)C(=O)O [Example 3b, 2-(β-methylcinnamyloxyimino)-propionic acid] | 50 mg/kg | 40% | –
8 | CC(=NOCC=Cc1cccc(Cl)c1)C(=O)O [Example 4, 2-(3-Chlorocinnamyloxyimino)-propionic acid] | 25 mg/kg | – | inhibition in vivo at 20 mg/kg (glucose resorption): 55%
9 | CC(=NOCC=Cc1ccccc1Cl)C(=O)O [Example 4a, 2-(2-chlorocinnamyloxyimino)-propionic acid] | – | 41% | minimal effective dose [1, 3]: 50 mg/kg
10 | CC(=NOCC=Cc1ccc(Cl)cc1)C(=O)O [Example 4b, 2-(4-chlorocinnamyloxyimino)-propionic acid] | – | – | minimal effective dose ([1]; potassium salt pH 7.4, N=4, remark printed: flat D-W curve): 25 to 50 mg/kg; inhibition in vivo at 20 mg/kg (glucose resorption): 10%
11 | C=CCON=C(C)C(=O)O [Example 4c, 2-(allyloxyimino)-propionic acid] | > 50 mg/kg | 37% | –
12 | CC(=NOCC=Cc1ccc(F)cc1)C(=O)O [Example 5, 2-(4-Fluorocinnamyloxyimino)-propionic acid] | 50 mg/kg | 3% | –
13 | COc1cccc(C=CCON=C(C)C(=O)O)c1 [Example 5D, 2-(3-methoxycinnamyloxyimino)-propionic acid] | 25 mg/kg | – | inhibition in vivo at 25 mg/kg (glucose resorption): 36%
14 | CC(=NOCC=Cc1cccc(C(F)(F)F)c1)C(=O)O [Example 5a, 2-(3-trifluoromethylcinnamyloxyimino)-propionic acid] | 50 mg/kg | 34% | –
15 | CC(=NOCC=Cc1cc(Cl)ccc1C)C(=O)O [Example 5f, 2-(5-chloro-2-methylcinnamyloxyimino)-propionic acid] | 50 mg/kg | 33% | –
16 | CC(=NOCC=Cc1ccccc1)C(=O)N1CCN(C)CC1 [Example 8, 4-[2-(Cinnamyloxyimino)-propionyl]-1-methylpiperazine] | > 50 mg/kg | 44% | –
17 | O=C(O)C(CF)=NOCC=Cc1ccccc1 [Example 9, 2-(Cinnamyloxyimino)-3-fluoropropionic acid] | 25 mg/kg | – | inhibition in vivo at 20 mg/kg (glucose resorption): 26%
18 | O=C(O)C=NOCC=Cc1ccccc1 [Example 10, Cinnamyloxyiminoacetic acid] | > 50 mg/kg | – | inhibition in vivo at 25 mg/kg (glucose resorption): 69%
19 | CCC(=NOCC=Cc1ccccc1)C(=O)O [Example 10a, 2-cinnamyloxyiminobutyric acid] | 25 mg/kg | – | inhibition in vivo at 20 mg/kg (glucose resorption): 0%
